According to US20250230193A1, “CYCLIC COMPOUND HAVING SELECTIVE KRAS INHIBITORY EFFECT ON HRAS AND NRAS” (CHUGAI SEIYAKU KABUSHIKI KAISHA, priority 2022, published 2025):

Assays:
[1] = biological target: GDP-bound NRAS wild-type protein (Homo sapiens, UniProt P01111); test: Binding to NRAS by surface plasmon resonance (SPR), Single Cycle Kinetics; settings: KD ratio NRAS/KRAS, SPR, GDP-bound wild-type proteins
[2] = biological target: GDP-bound HRAS wild-type protein (Homo sapiens, UniProt P01112); test: Binding to HRAS by surface plasmon resonance (SPR), Single Cycle Kinetics; settings: KD ratio HRAS/KRAS, SPR, GDP-bound wild-type proteins
GDP-bound HRAS wild-type protein, sequence (P01112 whole entry): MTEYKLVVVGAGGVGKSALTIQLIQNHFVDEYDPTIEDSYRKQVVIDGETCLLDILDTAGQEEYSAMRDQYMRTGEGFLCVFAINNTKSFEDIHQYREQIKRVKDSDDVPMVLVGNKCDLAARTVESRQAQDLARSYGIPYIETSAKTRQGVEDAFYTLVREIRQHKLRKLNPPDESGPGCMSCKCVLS

GDP-bound NRAS wild-type protein, sequence (P01111 whole entry): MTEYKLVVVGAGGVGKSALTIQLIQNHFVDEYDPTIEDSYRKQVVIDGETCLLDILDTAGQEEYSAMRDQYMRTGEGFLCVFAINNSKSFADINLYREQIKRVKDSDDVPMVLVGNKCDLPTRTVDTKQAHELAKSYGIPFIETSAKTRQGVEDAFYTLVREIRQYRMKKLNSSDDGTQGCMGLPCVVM

Structure (SMILES) | NRAS/KRAS (ratio of KD value with respect to GDP-bound NRAS wild-type protein to KD value with respect to KRAS) [1] | HRAS/KRAS (ratio of KD value with respect to GDP-bound HRAS wild-type protein to KD value with respect to KRAS) [2]
CCC[C@H]1C(=O)N[C@@H]([C@@H](C)CC)C(=O)N2CCC[C@H]2C(=O)N(C)[C@H]2C/C=C\CCN(C2=O)[C@@H](Cc2ccc(C)cc2)C(=O)N(C)CC(=O)N[C@@H](CCc2ccc(C(F)(F)F)c(OC)c2)C(=O)N2C[C@H](OCC)C[C@H]2C(=O)N(C)C2(CCC2)C(=O)N(C)[C@@H](C2CCCC2)C(=O)N(C)[C@H](C(=O)N2CCCC2)CC(=O)N1C [PP3102, (1S,4S,10S,13S,17S,20S,26S,28R,32S,38S,42Z)-20-cyclopentyl-28-ethoxy-32-[2-[3-methoxy-4-(trifluoromethyl)phenyl]ethyl]-2,14,18,21,24,36-hexamethyl-10-[(1S)-1-methylpropyl]-13-propyl-38-(p-tolylmethyl)-17-(pyrrolidine-1-carbonyl)spiro[2,8,11,14,18,21,24,30,33,36,39-undecazatetracyclo[37.5.1.0^4,8.0^26,30]pentatetracont-42-ene-23,1′-cyclobutane]-3,9,12,15,19,22,25,31,34,37,45-undecone] | A (a compound having 10 or more and less than 20 is denoted as A) | A (a compound having 10 or more and less than 20 is denoted as A)
CCC[C@H]1C(=O)N[C@@H]([C@@H](C)CC)C(=O)N(C)CC(=O)N(C)[C@H]2C/C=C\CCN(C2=O)[C@@H](Cc2ccc(C)cc2)C(=O)N(C)CC(=O)N[C@@H](CCc2ccc(C(F)(F)F)c(OC)c2)C(=O)N2C[C@H](OCC)C[C@H]2C(=O)N(C)C2(CCC2)C(=O)N(C)[C@@H](C2CCCC2)C(=O)N(C)[C@H](C(=O)N2CCCCC2)CC(=O)N1C [PP3104, (2S,8S,12R,14S,20S,23S,27S,30S,36S,38Z)-20-cyclopentyl-12-ethoxy-8-[2-[3-methoxy-4-(trifluoromethyl)phenyl]ethyl]-4,16,19,22,26,32,35-heptamethyl-30-[(1S)-1-methylpropyl]-23-(piperidine-1-carbonyl)-27-propyl-2-(p-tolylmethyl)spiro[1,4,7,10,16,19,22,26,29,32,35-undecazatricyclo[34.5.1.0^10,14]dotetracont-38-ene-17,1′-cyclobutane]-3,6,9,15,18,21,25,28,31,34,42-undecone] | A (a compound having 10 or more and less than 20 is denoted as A) | A (a compound having 10 or more and less than 20 is denoted as A)
CCC[C@H]1C(=O)N[C@@H]([C@@H](C)CC)C(=O)N(C)CC(=O)N(C)[C@H]2C/C=C\CCN(C2=O)[C@@H](Cc2ccc(C(F)(F)F)cc2)C(=O)N(C)CC(=O)N[C@@H](CCc2ccc(C(F)(F)F)c(OC)c2)C(=O)N2C[C@H](OCC)C[C@H]2C(=O)N(C)C2(CCC2)C(=O)N(C)[C@@H](C2CCCC2)C(=O)N(C)[C@H](C(=O)N2CCCC2)CC(=O)N1C [PP3105, (2S,8S,12R,14S,20S,23S,27S,30S,36S,38Z)-20-cyclopentyl-12-ethoxy-8-[2-[3-methoxy-4-(trifluoromethyl)phenyl]ethyl]-4,16,19,22,26,32,35-heptamethyl-30-[(1S)-1-methylpropyl]-27-propyl-23-(pyrrolidine-1-carbonyl)-2-[[4-(trifluoromethyl)phenyl]methyl]spiro[1,4,7,10,16,19,22,26,29,32,35-undecazatricyclo[34.5.1.0^10,14]dotetracont-38-ene-17,1′-cyclobutane]-3,6,9,15,18,21,25,28,31,34,42-undecone] | AA (a compound having 20 or more is denoted as AA) | A (a compound having 10 or more and less than 20 is denoted as A)
CCC[C@H]1C(=O)N[C@@H]([C@@H](C)CC)C(=O)N(C)CC(=O)N(C)[C@H]2C/C=C\CCN(C2=O)[C@@H](Cc2ccc(C)cc2)C(=O)N(C)CC(=O)N[C@@H](CCc2ccc(C(F)(F)F)c(OC)c2)C(=O)N2C[C@H](OCC)C[C@H]2C(=O)N(C)C2(CCC2)C(=O)N(C)[C@@H](C2CCCC2)C(=O)N(C)[C@H](C(=O)N2CCCC2)CC(=O)N1C [PP3106, (2S,8S,12R,14S,20S,23S,27S,30S,36S,38Z)-20-cyclopentyl-12-ethoxy-8-[2-[3-methoxy-4-(trifluoromethyl)phenyl]ethyl]-4,16,19,22,26,32,35-heptamethyl-30-[(1S)-1-methylpropyl]-27-propyl-2-(p-tolylmethyl)-23-(pyrrolidine-1-carbonyl)spiro[1,4,7,10,16,19,22,26,29,32,35-undecazatricyclo[34.5.1.0^10,14]dotetracont-38-ene-17,1′-cyclobutane]-3,6,9,15,18,21,25,28,31,34,42-undecone] | A (a compound having 10 or more and less than 20 is denoted as A) | A (a compound having 10 or more and less than 20 is denoted as A)
CCC[C@H]1C(=O)N[C@@H]([C@@H](C)CC)C(=O)N(C2CC2)CC(=O)N(C)[C@H]2C/C=C\CCN(C2=O)[C@@H](Cc2ccc(C(F)(F)F)cc2)C(=O)N(C)CC(=O)N[C@@H](CCc2cc(F)c(C(F)(F)F)c(F)c2)C(=O)N2C[C@H](OCC)C[C@H]2C(=O)N(C)C2(CCC2)C(=O)N(C)[C@@H](C2CCCC2)C(=O)N(C)[C@H](C(=O)N2CCCCC2)CC(=O)N1C [PP3110] | A (a compound having 10 or more and less than 20 is denoted as A) | A (a compound having 10 or more and less than 20 is denoted as A)
CCC[C@H]1C(=O)N[C@@H]([C@@H](C)CC)C(=O)N(C2CC2)CC(=O)N(C)[C@H]2C/C=C\CCN(C2=O)[C@@H](Cc2ccc(C(F)(F)F)cc2)C(=O)N(C)CC(=O)N[C@@H](CCc2cc(F)c(C(F)(F)F)c(F)c2)C(=O)N2C[C@H](OCC)C[C@H]2C(=O)N(C)C2(CCC2)C(=O)N(C)[C@@H](C2CCCC2)C(=O)N(C)[C@H](C(=O)N2CCCC2)CC(=O)N1C [PP3112] | A (a compound having 10 or more and less than 20 is denoted as A) | B (a compound having 3 or more and less than 10 is denoted as B)
CCC[C@H]1C(=O)N[C@@H]([C@@H](C)CC)C(=O)N(C2CC2)CC(=O)N(C)[C@H]2C/C=C\CCN(C2=O)[C@@H](Cc2ccc(C)cc2)C(=O)N(C)CC(=O)N[C@@H](CCc2cc(F)c(C(F)(F)F)c(F)c2)C(=O)N2C[C@H](OCC)C[C@H]2C(=O)N(C)C2(CCC2)C(=O)N(C)[C@@H](C2CCCC2)C(=O)N(C)[C@H](C(=O)N2CCCC2)CC(=O)N1C [PP3113, (2S,8S,12R,14S,20S,23S,27S,30S,36S,38Z)-20-cyclopentyl-32-cyclopropyl-8-[2-[3,5-difluoro-4-(trifluoromethyl)phenyl]ethyl]-12-ethoxy-4,16,19,22,26,35-hexamethyl-30-[(1S)-1-methylpropyl]-27-propyl-2-(p-tolylmethyl)-23-(pyrrolidine-1-carbonyl)spiro[1,4,7,10,16,19,22,26,29,32,35-undecazatricyclo[34.5.1.0^10,14]dotetracont-38-ene-17,1′-cyclobutane]-3,6,9,15,18,21,25,28,31,34,42-undecone] | A (a compound having 10 or more and less than 20 is denoted as A) | A (a compound having 10 or more and less than 20 is denoted as A)
CCC[C@H]1C(=O)N[C@@H]([C@@H](C)CC)C(=O)N2CCC[C@H]2C(=O)N(C)[C@H]2C/C=C\CCN(C2=O)[C@@H](Cc2ccc(C(F)(F)F)cc2)C(=O)N(C)CC(=O)N[C@@H](CCc2cc(F)c(C(F)(F)F)c(F)c2)C(=O)N2C[C@H](OCC)C[C@H]2C(=O)N(C)C2(CCC2)C(=O)N(C)[C@@H](C2CCCC2)C(=O)N(C)[C@H](C(=O)N2CCCCC2)CC(=O)N1C [PP3114] | AA (a compound having 20 or more is denoted as AA) | A (a compound having 10 or more and less than 20 is denoted as A)
CCC[C@H]1C(=O)N[C@@H]([C@@H](C)CC)C(=O)N2CCC[C@H]2C(=O)N(C)[C@H]2C/C=C\CCN(C2=O)[C@@H](Cc2ccc(C)cc2)C(=O)N(C)CC(=O)N[C@@H](CCc2cc(F)c(C(F)(F)F)c(F)c2)C(=O)N2C[C@H](OCC)C[C@H]2C(=O)N(C)C2(CCC2)C(=O)N(C)[C@@H](C2CCCC2)C(=O)N(C)[C@H](C(=O)N2CCCCC2)CC(=O)N1C [PP3115, (1S,4S,10S,13S,17S,20S,26S,28R,32S,38S,42Z)-20-cyclopentyl-32-[2-[3,5-difluoro-4-(trifluoromethyl)phenyl]ethyl]-28-ethoxy-2,14,18,21,24,36-hexamethyl-10-[(1S)-1-methylpropyl]-17-(piperidine-1-carbonyl)-13-propyl-38-(p-tolylmethyl)spiro[2,8,11,14,18,21,24,30,33,36,39-undecazatetracyclo[37.5.1.0^4,8.0^26,30]pentatetracont-42-ene-23,1′-cyclobutane]-3,9,12,15,19,22,25,31,34,37,45-undecone] | A (a compound having 10 or more and less than 20 is denoted as A) | B (a compound having 3 or more and less than 10 is denoted as B)
CCC[C@H]1C(=O)N[C@@H]([C@@H](C)CC)C(=O)N2CCC[C@H]2C(=O)N(C)[C@H]2C/C=C\CCN(C2=O)[C@@H](Cc2ccc(C(F)(F)F)cc2)C(=O)N(C)CC(=O)N[C@@H](CCc2cc(F)c(C(F)(F)F)c(F)c2)C(=O)N2C[C@H](OCC)C[C@H]2C(=O)N(C)C2(CCC2)C(=O)N(C)[C@@H](C2CCCC2)C(=O)N(C)[C@H](C(=O)N2CCCC2)CC(=O)N1C [PP3116] | A (a compound having 10 or more and less than 20 is denoted as A) | A (a compound having 10 or more and less than 20 is denoted as A)
